Results on four compounds are retold here after patent US20100184809A1, “Heterocyclic FXR Binding Compounds” (PHENEX PHARMACEUTICALS AG, priority 2006, published 2010).

Series [1] can be described thus: PAMPA permeability assay. As to conditions: % of compound found in the receiver compartment after 16 hours; PBS pH 7.4, 5% DMSO, 23° C. It is filed as in vitro ADME. The method, then:
Artificial membrane permeability was determined as follows: Tested compounds were dissolved to 10 mM in 100% DMSO. Permeability of compounds was measured in PBS (pH 7.4), 5% DMSO at 23° C. Safire (Tecan) plate reader was used for measurement the UV/Vis absorption. Protocol: Dilute stocks of tested compounds and controls with PBS to 1.67 mM and mix well by pipeitting, add 280 μl of PBS, 5% DMSO to acceptor plate, add 5 μl of 2% L-α-Phosphatidylcholine suspension in dodecane to the membrane of donor plate, Immediately add 98 μl of PBS to donor plate and make the sandwich with acceptor plate. Add 42 μl of tested compounds and controls dilutions to […], cover the plate, place into camera and incubate for 16 hours. Make the equilibrium plate, add 225 μl of PBS, 3,7% DMSO and 25 μl of tested compounds and controls dilutions to UV plate. After 16 hours pull the donor plate out and transfer 250 μl from acceptor plate to UV plate. Scan UV plate on Safire (Tecan) plate reader from […]. Permeability is reported in % of compound found in the receiver compartment after the incubation period.

A short description of series [2]: Plasma protein binding assay (equilibrium dialysis). As to conditions: 37° C., extrapolated fraction unbound. Format: in vitro ADME. As to the method: Equilibrium dialysis is used to determine the extent of binding of a compound to plasma proteins. A semi-permeable membrane separates a protein-containing compartment from a protein-free compartment. The system is allowed to equilibrate at 37° C. The test compound present in each compartment is quantified by LC-MS/MS. The extent of binding is reported as a fraction unbound (fu) value which is calculated as fu=1−(PC−PF)/PC. PC=Test compound concentration in protein-containing compartment. PF=Test compound concentration in protein-free compartment. In addition to using whole plasma, the plasma protein binding assay can be performed using two other ratios of plasma (10% or 50% plasma in buffer v/v). The following equations are used to convert from a fraction unbound at 10% or 50% to a fraction unbound at 100%: […]

Series [3] in a line: Human microsomal stability assay. It is filed as in vitro ADME. Particulars: liver microsomes, 0.5 mg microsomal protein/ml, 10 μM compound, 37° C., read-out: Human liver microsome clearance. As to the method: Compound stability towards human liver microsomes was determined as follows: Human liver microsomal suspension (1 ml) prepared in reaction buffer at a concentration of 0.5 mg microsomal protein/ml was preincubated for 3 min at 37° C. with a NADPH-generating system (10 mM glucose 6-phosphate, 1 mM NADP+, and 1 unit/ml yeast glucose-6-phosphate dehydrogenase). The final compounds concentration is 10 μM. Boiled microsomes (5 min) served as a control. Samples (50 μl) were then taken after 0, 5, 15, 30, 45, 120 min, into 200 μl acetonitrile, centrifuged for 15 min at 8000×g to remove the protein pellet. Samples were analyzed for parent compound by HPLC. Method development: All samples for metabolic stability experiments were analyzed by HPLC. Only parent compounds were analyzed. Data analysis: The percentages of the parent compounds remaining was defined as the ratio of the parent compounds peak area at a specific point and the peak area at the first time point multiplied by 100%. The metabolic stability was evaluated by plotting the natural logarithm of the percentage parent compounds remaining versus time and performing linear regression and finally reported as clearance [μl/min/mg protein] which is reversed proportional to compound stability. Applying this protocol, Microsomal stability of examples and reference compounds was determined. (Table 7)

Series [4] can be described thus: Rat hepatocyte stability assay. It is filed as in vitro ADME. Particulars: hepatocytes, 37° C., 60 minute, read-out: Rat hepatocyte clearance. The method, then:
Compound stability towards rat hepatocytes was determined as follows: The hepatocytes are incubated with the test compound at 37° C. Samples are removed at the appropriate time points into methanol to terminate the reaction. Following centrifugation, the supernatant is analysed by LC-MS/MS. The disappearance of test compound is monitored over a 60 minute time period. The In peak area ratio (compound peak area/internal standard peak area) is plotted against time and the gradient of the line determined. Finally, half life t1/2 and Intrinsic clearance CLint is computed by the following equations: elimination rate konstant (k)=−gradient; t1/2 (min)=0.693/k; V (μl/10^6 cells)=volume of incubation (μl)/number of cells (*10^6); CLint (μl/min/10^6cells protein)=V*0.693/t1/2.

Series [5] is described as follows: Pharmacokinetic parameters in C57BL/6 mice (plasma concentration after peroral gavage). Format: in vivo. Particulars: mouse, oral, perorally by gavage 10 mg/kg, male C57BL/6 mice, read-out: mean plasma conc. As to the method: Information on the rate and extent of absorption of the test compounds were generated using two distinct animal models, C57/BI/6J and C57/BLKS/J(mLepr^db/db) mice. Compounds were applied perorally by gavage at 10 mg/kg each to male 8 weeks old C57BL/6 mice and plasma concentrations of the test items were determined by LC-MS/MS (Table 11). Alternatively, compounds were applied perorally by gavage at 25 mg/kg each to 16 weeks old male C57/BLKS/J(mLepr^db/db) mice and plasma concentrations of the test items were determined 120 min after gavage by LC-MS/MS (Table 12).
A solution of 20 mg/ml of each test item was produced by diluting them in the vehicle, 30% HPBCD (hydroxypropyl-beta-cyclodextrin) in 20 mM phosphate buffer pH7.0 (v/w). These solutions were stirred overnight at room temperature and heated to 60° C. for 10 minutes, resulting in a full solubilization. The application was performed by administrating the solution perorally to the mice, with an application volume of 10 ml/kg. For each time point five mice were used. Blood samples were obtained by sacrificing animals for each time point followed by cardiac puncture. Blood samples were treated with Li-heparin during collection procedure and stored on ice until centrifugation at 645 g (5 min, 4° C.). Plasma was harvested and kept at −20° C. until being assayed. To 50 μl of mouse plasma sample 6 μl acetonitrile containing an internal standard was added. Samples were vigorously shaken and centrifuged for 10 minutes at 6000 g and 20° C. An aliquot of the particle-free supernatant was transferred to 200 μl sampler vials and subsequently subjected to LC MS/MS for quantification.

Consider `Cc1nc(OCc2c(-c3c(Cl)cccc3Cl)noc2C(C)C)ccc1N(C)S(=O)(=O)c1ccc(C(=O)O)cc1` [Example 4, 4-(N-(6-((3-(2,6-dichlorophenyl)-5-isopropylisoxazol-4-yl)methoxy)-2-methylpyridin-3-yl)—N-methylsulfamoyl)benzoic acid], for which the “PAMPA Permeability” value in series [1] came to 50%. The unbound share (fraction unbound) in series [2] is 0.0003. In series [3], the microsomal CLint at 10 μM was 62 µL/min/mg. Moreover, the hepatocyte CLint in series [4] was found to be 7.1 µL/min/1e6 cells.

As for `CC(C)c1onc(-c2c(Cl)cccc2Cl)c1COc1ccc(/C=C/c2cccc(C(=O)O)c2)c(Cl)c1` [Compound B, reference compound], in series [1], the “PAMPA Permeability” value was determined as 7%. Further, in series [3], the microsomal CLint at 10 μM worked out at 100 µL/min/mg. In series [4], the hepatocyte CLint was 45 µL/min/1e6 cells. Besides, in series [5], the concentration at 15 min stood at 1600 ng/mL and the concentration at 45 min came out at 1650 ng/mL.

In the case of `CC(C)c1onc(-c2c(Cl)cccc2Cl)c1COc1ccc(N(C)Cc2ccc(C(=O)O)cc2)c(C(F)(F)F)n1` [Example 28, 4(((6-((3-(2,6-Dichlorophenyl)-5-isopropylisoxazol-4-yl)methoxy)-2-(trifluoromethyl)pyridin-3-yl)(methyl)amino)methyl)benzoic acid], in series [5], the concentration at 15 min was 1780 ng/mL and the concentration at 45 min stood at 2230 ng/mL.

In the case of `CC(C)c1onc(-c2c(Cl)cccc2Cl)c1COc1ccc(N(C)C(=O)c2ccc(C(=O)O)cc2)c(C(F)(F)F)n1` [Example 7, N-{6-[3-(2,6-dichloro-phenyl)-5-isopropyl-isoxazol-4-ylmethoxy]-2-trifluoromethyl-pyridin-3-yl}-N-methyl-terephthalamic acid], the fraction unbound in series [2] was 0.005. Moreover, the microsomal CLint at 10 μM in series [3] was 14 µL/min/mg. Further, in series [4], the hepatocyte CLint came out at 0.7 µL/min/1e6 cells.

Usually fraction unbound stands for free concentration divided by total concentration.
